The values that follow come from PubChem BioAssay (NCI).

Broadly, the TGI is the concentration at which net growth stops. Read a high TGI as lower sensitivity of the cells.

The structures appear in SMILES notation.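 Compound exposure: 48 hours, 5 concentrations, 96-well plates. TGI is the concentration that stops growth completely.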

Common to all, as to test: DTP human tumour cell line panel, 48 h
The test system of assay [1] is HOP-92 NSCLC.
The subject of assay [2] is RXF 393 renal.
Assay [3] deals with OVCAR-8 ovarian.
The subject of assay [4] is SN12C renal.
Assay [5] deals with IGROV1 ovarian.
For assay [6], the system named is A549 NSCLC.
The test system of assay [7] is HCT-15 colon.
In assay [8] the test system is 786-0 renal.
In assay [9] the test system is SF-268 CNS.
Assay [10] concerns SNB-75 CNS.
Assay [11] concerns A498 renal.
The test system of assay [12] is COLO 205 colon.
Assay [13] deals with OVCAR-5 ovarian.
The test system of assay [14] is UACC-257 melanoma.
The test system of assay [15] is SK-MEL-28 melanoma.
For assay [16], the system named is SNB-19 CNS.
Assay [17] deals with MALME-3M melanoma.
Assay [18] concerns MCF7 breast.
The test system of assay [19] is MDA-MB-231 breast.
For assay [20], the system named is HS 578T breast.

`CCc1cccc(C(C)CC)c1NC(=O)C(=O)C(CC(=O)Nc1ccc(Cl)c(Cl)c1)C(=O)OC` (stereo not drawn): the TGI in assay [1], in assay [2], in [3], in assay [4], in assay [5] and in [6] was above 100 µM each time. Also, the concentration for total growth inhibition (TGI) in [7], in [8], in assay [9], in assay [10], in [11] and in assay [12] was above 100 µM throughout. For the same molecule, the TGI in assay [13], in assay [14], in assay [15], in assay [16] and in assay [17] was above 100 µM each time.

With `CC(=O)c1sc(Nc2ccc(Cl)c(Cl)c2)nc1C`, the concentration for total growth inhibition (TGI) in assay [18], in assay [2], in assay [3], in [4], in assay [5] and in [6] was above 100 µM throughout. For the same molecule, the TGI in assay [7], in assay [8], in [19], in [9], in assay [10] and in [11] was above 100 µM each time. Moreover, the TGI in assay [12], in assay [13], in assay [14], in assay [15], in assay [16] and in assay [17] was above 100 µM each time.

Turning to `COc1cc(C)c(C)c(OC(=O)c2c(C)c(C)c(OC)c(C)c2OC)c1C`, the concentration for total growth inhibition (TGI) was 53.9 µM in assay [1]; 39.7 µM in assay [2]; above 100 µM in assay [3]; above 100 µM in [4]; above 100 µM in [5]; 71.8 µM in assay [6]. Also, the concentration for total growth inhibition (TGI) amounted to 18.5 µM in assay [7]; 53.4 µM in assay [8]; 56.2 µM in assay [9]; 36 µM in [10]; 45.9 µM in assay [11]; 15.7 µM in [12]. Besides, the concentration for total growth inhibition (TGI) was 91.4 µM in assay [13]; 78.6 µM in assay [14]; above 100 µM in assay [15]; above 100 µM in assay [16]; 65.7 µM in [17].

Regarding `C/C(=N\Nc1nc2ccccc2o1)c1cc(C)ncn1`, the TGI in assay [18] is above 85.3 µM; in [1], above 21.7 µM; in assay [2], 32.1 µM; in [3], 0.0519 µM; in assay [4], above 100 µM; in assay [5], 1.51 µM. Also, the TGI is above 39 µM in assay [6]; 35.3 µM in assay [7]; 24.3 µM in assay [8]; 75 µM in [19]; 3.27 µM in [10]; above 100 µM in assay [11]. In addition, the TGI in [12] is above 40.8 µM; in assay [13], 26.8 µM; in [15] it was above 100 µM; in [16], above 100 µM; in assay [17], 33.1 µM.

Regarding `O=C(Cn1c2ccc(Br)cc2c2nc3ccccc3nc21)N/N=C/c1ccccc1`, the concentration for total growth inhibition (TGI) in assay [18], in assay [2], in assay [3], in [4], in assay [5] and in [6] was above 100 µM throughout. The concentration for total growth inhibition (TGI) in assay [8] was 94.8 µM; in [19] it was above 100 µM; in assay [9], above 100 µM; in [10] it was above 100 µM; in assay [11], above 100 µM; in assay [12], above 100 µM. Further, the TGI in assay [13], in assay [14], in assay [15] and in [16] was above 100 µM throughout.

For the molecule `O=C1CCCCC(=O)Nc2ccccc2N1`, the concentration for total growth inhibition (TGI) in assay [1], in assay [20], in [2], in assay [3], in assay [4] and in [5] was above 100 µM throughout. Also, the TGI in [6], in assay [7], in assay [8], in [19], in [9] and in assay [11] was above 100 µM each time. Moreover, the TGI in [12], in assay [13], in assay [14], in [15], in assay [16] and in assay [17] was above 100 µM each time.

With `CC1CN=C(NS(=O)(=O)c2cc(C(=O)Nc3ccc(F)cc3)c(Cl)cc2S)NN1` (stereo not drawn), the concentration for total growth inhibition (TGI) in assay [18], in assay [3], in assay [4], in assay [5], in [6] and in assay [7] was above 100 µM each time. For the same molecule, the TGI was above 100 µM in assay [8]; above 100 µM in assay [19]; above 100 µM in assay [9]; 64.1 µM in [11]; above 100 µM in assay [12]; above 100 µM in assay [13]. In addition, the TGI in assay [14] is above 100 µM; in [15] it was above 100 µM; in assay [16], above 100 µM; in assay [17] it was 70.1 µM.

Consider `Cc1n[nH]c(=O)n1/N=C/c1ccncc1`, for which the TGI in assay [1], in [20], in [2], in assay [3], in assay [4] and in assay [5] was above 100 µM each time. Besides, the TGI in assay [6], in [7], in [8], in [19], in assay [9] and in assay [10] was above 100 µM throughout. The TGI in [11], in assay [12], in assay [13], in assay [14], in assay [15] and in assay [16] was above 100 µM each time. In assay [17], this molecule had a TGI above 100 µM.

Consider `Nc1cc(N2CCOCC2)nc(=O)n1-c1ccc(Cl)cc1`, for which the TGI in assay [18], in [1], in assay [3], in [4], in [5] and in assay [6] was above 100 µM throughout. Also, the concentration for total growth inhibition (TGI) in assay [7], in assay [8], in [10], in assay [11], in assay [12] and in assay [13] was above 100 µM in each case. The total growth inhibition concentration (TGI) in assay [14], in assay [15] and in [16] was above 100 µM throughout.

For `COc1ccc([C@]23CCN(S(=O)(=O)c4ccc(C)cc4)[C@H]2[C@H](CO)C2(CC3)OCC(C)(C)CO2)cc1OC`, the concentration for total growth inhibition (TGI) in assay [18], in assay [1], in assay [2], in assay [3], in [4] and in assay [5] was above 100 µM throughout. Also, the TGI in assay [6], in assay [7], in [8], in assay [19], in assay [10] and in [11] was above 100 µM in each case. Moreover, the total growth inhibition concentration (TGI) in assay [12], in assay [13], in assay [14], in assay [15], in assay [16] and in [17] was above 100 µM each time.

With `COC(=O)C1N=CSCC1(C)O` (stereo not drawn), the TGI in assay [1], in assay [2], in [3], in assay [4], in assay [5] and in [6] was above 100 µM each time. The TGI in assay [7], in [8], in [9], in assay [10], in [11] and in assay [12] was above 100 µM in each case. Further, the TGI in assay [13], in assay [14], in assay [15], in [16] and in assay [17] was above 100 µM throughout.

Consider `COC(=O)CCc1cccnc1/C=N/O`, for which the TGI in [1], in assay [2], in [3], in assay [4], in assay [5] and in assay [6] was above 100 µM in each case. Besides, the concentration for total growth inhibition (TGI) in assay [7], in assay [8], in assay [9], in assay [10], in assay [11] and in assay [12] was above 100 µM each time. The TGI in assay [13], in [14], in assay [15], in assay [16] and in assay [17] was above 100 µM each time.

Turning to `C/C(CC(=O)NC1=CC=C(NC(=O)C/C(C)=N\Nc2ccccc2)CC1)=N/Nc1ccccc1`, the TGI in assay [1], in assay [2], in [3], in assay [4], in assay [5] and in [6] was above 100 µM throughout. Moreover, the TGI in assay [7], in [8], in assay [9], in assay [10], in assay [11] and in assay [12] was above 100 µM in each case. For the same molecule, the total growth inhibition concentration (TGI) in [13], in [14], in assay [15], in assay [16] and in [17] was above 100 µM in each case.

For the molecule `Cn1nc2ccc3nccc(N(CCO)CCO)c3c2n1`, the concentration for total growth inhibition (TGI) in assay [1], in assay [2], in [3], in [4], in [5] and in assay [6] was above 100 µM each time. For the same molecule, the TGI in [7], in assay [8], in [9], in assay [10], in assay [11] and in assay [12] was above 100 µM throughout. The TGI in assay [13], in assay [14], in assay [15], in assay [16] and in [17] was above 100 µM each time.

With `N#CC(C(=N/NC(N)=S)/C(=N/NC(N)=S)C(C#N)c1ccc(Cl)cc1)c1ccc(Cl)cc1` (stereo not drawn), the concentration for total growth inhibition (TGI) in [1], in assay [2], in assay [3], in [4], in assay [5] and in assay [6] was above 100 µM in each case. Moreover, the concentration for total growth inhibition (TGI) in assay [7] was above 100 µM; in [8], above 100 µM; in [9], above 100 µM; in [10], 92.1 µM; in assay [11] it was above 100 µM; in [12] it was above 100 µM. The TGI in assay [13], in assay [14], in [15], in assay [16] and in [17] was above 100 µM throughout.

As for `O=C1CC(c2ccc(Cl)cc2)C2(C(=O)NC(=O)NC2=O)C(c2ccc(Cl)cc2)C1` (stereo not drawn), the TGI in assay [18] is above 75 µM; in assay [1], 54.9 µM; in [2], 52.2 µM; in [3], above 75 µM; in [4], 54 µM; in [5], 51.3 µM. The TGI in [7] was above 75 µM; in assay [8], above 75 µM; in assay [19] it was 34.8 µM; in assay [9], above 75 µM; in assay [10], above 75 µM; in assay [12] it was 65.1 µM. Moreover, the TGI in assay [13] is above 75 µM; in assay [14], above 75 µM; in assay [15], 37 µM; in assay [16] it was above 75 µM; in assay [17] it was 39.8 µM.
